These compounds were tested on mold (assay: Mold growth on white bread loaves (Dough Formulation A) coated with antimicrobial powders, Example 1).
Protocol: All of the ingredients except for the salt were added to a 20 qt Hobart mixer, and mixed with a spiral hook on the 1st speed setting (low) for two minutes. […] The salt was added, followed by mixing at the 2nd speed setting for an additional 3 minutes until full dough development. […] Next, a Gemini Straight Grain Moulder was used, according to the settings in Table 4 below, to sheet and mould the dough pieces. The shaped dough pieces were then evenly coated with 2 grams of various antimicrobial powders containing different antimicrobial agents, as described below, and then placed into 1-lb loaf pans. […] After baking, the loaves were removed from the oven and […]. The loaves were cooled on wire racks for 1 hour and then bagged in poly bags with twist ties. […] Each of the antimicrobial powders used above was prepared by adding the ingredients in the tables below to a 5 qt Hobart mixer and blending with a paddle attachment for 10 minutes.

Row | Compound | Mold Inhibition
1 | C/C=C/C=C/C(=O)O [Sorbic Acid] | Effective
2 | CCC(=O)[O-].CCC(=O)[O-].[Ca+2] [Calcium Propionate] | Slightly Effective
3 | Polylysine | Moderately Effective
4 | CCC(=O)[O-].[Na+] [Sodium Propionate] | Moderately Effective
5 | C[C@@H]1C/C=C/C=C/C=C/C=C/[C@H](O[C@@H]2O[C@H](C)[C@@H](O)[C@H](N)[C@@H]2O)C[C@@H]2O[C@](O)(C[C@@H](O)C[C@H]3O[C@@H]3/C=C/C(=O)O1)C[C@H](O)[C@H]2C(=O)O [Natamycin, reference compound] | Effective
6 | C/C=C/C=C/C(=O)[O-].[K+] [Potassium Sorbate] | Effective
7 | CC(=O)O.CC(=O)[O-].[Na+] [Sodium Diacetate] | Moderately Effective
8 | O=C(O)/C=C/C(=O)O [Fumaric Acid] | Slightly Effective
9 | O=C([O-])c1ccccc1.[Na+] [Sodium Benzoate] | Moderately Effective
